In patent publication US8853264B2, “Use of lignan compounds for treating or preventing inflammatory disease” (Newtree Industry Co., Ltd., priority 2005, dated 2014):

How the values were obtained:
NO = NO production in RAW264.7 cells activated with LPS (Griess); format: cell-based
Method: RAW264.7 cells were diluted at a concentration of 1×10^6 cell/ml and then inoculated into RPMI 1640 medium. After 5 hours, the inventive macelignan was added to the medium at each of a concentration of 1-20 μM, followed by incubation for 2 hours. Then, the medium was treated with LPS (10 μg/ml) and incubated for 24 hours. A control group was treated only with LPS. The production of NO was quantified by measuring NO2^−, a reaction product of NO, using the remains of cell culture (Han et al., Life Sci., 75(6): 675-684, 2004). 100 μl of the remains of cell culture and the same volume of Greiss reagent (0.5% sulfanilyamide, 0.05% N-(1-naphthyl)ethylene diamine dihydrochloride/2.5% H3PO4) were mixed with each other on a 96-well tissue culture plate and allowed to react in a dark place for 10 minutes. Then, the absorbance of the sample was measured at 550 nm using the ELISA microplate reader. […] All tests were repeated at three times, and then quantified by student's t-test.

[1] = Airway hypersensitivity test, allergen-induced asthma; format: in vivo, C57BL/6 (B6) male mice; settings: oral administration in corn oil, every day; vs vehicle group; p<0.05
Method: (§1) 5 μL of allergen, AP (aspergillus protease, 1 mg/mL, Sigma-Aldrich, St. Louis, Mo.) was mixed with 45 μL of OVA (chicken egg ovalbumin, 0.5 mg/mL, Sigma-Aldrich). After 3 intraperitoneal injections with 4-day intervals, asthma was induced by 2 intranasal challenges with 4-day interval. The intranasal challenge was performed under isoflurane inhalational anesthesia. Macelignan dissolved in corn oil was orally administered every day.
Within 24 hours after the last allergen challenge, the mouse was anesthetized by intraperitoneal injection of 0.1 mg/g sodium pentobarbital. After tracheal intubation, flexiVent (Scireq®, Montreal, Canada) was connected to maintain stable ventilation. Thereafter, striated muscle was relaxed by intravenous (IV) administration of 0.08 mg/kg pancuronium (Sigma-Aldrich). Following airway hypersensitivity test by IV administration of acetylcholine (Sigma-Aldrich), 1 mL of DPBS (Dulbecco's phosphate buffered saline) was injected twice into the intubation tube using a syringe for bronchioalveolar lavage. […]
For airway hypersensitivity test, the mouse was anesthetized using sodium pentobarbital and, after tracheal intubation, flexiVent was connected to maintain stable ventilation. […] Immediately after IV administration of acetylcholine, airway resistance was measured 3 times by snapshot. The mean value was recorded as airway resistance.

[2] = Toxicity in oral administration to rats; settings: rat, in vivo, read-out: 50% lethality (LD50)
Method: The inventive lignan compound was tested for toxicity in oral administration to rats, and as a result, it was observed that the 50% lethality (LD50) was more than 2,000 mg/kg.

PGE2 = PGE2 production in macrophages activated by LPS (ELISA); format: cell-based
Method: First, 1×10^6 cells/ml of RAW264.7 cells were inoculated into a 96-well tissue culture plate and left to stand at room temperature for 5 hours. Then, the inventive macelignan was added to the cells at each of concentrations of 1-20 μM and incubated for 2 hours. A negative control group was not treated with anything, and a positive control group was treated with curcumin (isolated from Curcuma longa; Sigma) reported to have PGE2 inhibitory activity. Then, the cells were treated with 1 μg/ml of LPS and cultured for 18 hours. The production of PGE2 in the macrophages was quantified by an assay kit (R&D System Inc, Minneapolis, USA) using an ELISA method (Chen et al., Biochem. Pharmacol., 68: 1089-1100, 2002).

glycoprotein (mucin) = test: Glycoprotein level in BAL fluid (ELISA), asthma model; format: in vivo, C57BL/6 (B6) male mice; settings: oral 400 μg/g and 800 μg/g
Method: as §1
Within 24 hours after the last allergen challenge, the mouse was anesthetized by intraperitoneal injection of 0.1 mg/g sodium pentobarbital. After tracheal intubation, flexiVent (Scireq®, Montreal, Canada) was connected to maintain stable ventilation. Thereafter, striated muscle was relaxed by intravenous (IV) administration of 0.08 mg/kg pancuronium (Sigma-Aldrich). […]
When asthma is induced, secretion of mucin increases in the airway. Glycoprotein ELISA was carried out to quantitate mucin in BAL fluid. […] After blocking, followed by treating with biotinylated jacalin and then with streptavidin-alkaline phosphatase, substrate was added and absorbance was measured at 405 nm Glycoprotein level in the BAL fluid was determined by comparing with the standard curve obtained using the standard solution.

COc1cc(C[C@H](C)[C@H](C)Cc2ccc3c(c2)OCO3)ccc1O (single isomer, unassigned) [macelignan]
inhibition of NO production at low concentrations (NO; 1 μM and 5 μM, P<0.01): excellent effects on the inhibition of NO production
production of NO at 20 μM (NO; 20 μM macelignan): inhibited to an extent almost similar to that of the group treated with nothing
production of NO (NO; 1-20 μM, LPS 10 μg/ml, 24 hours): concentration-dependently inhibited
airway hypersensitivity [1]: statistically significant decrease of airway hypersensitivity
LD50 [2]: > 2000 mg/kg
production of PGE2 (PGE2; 1-20 μM, LPS 1 μg/ml, 18 hours, effect shown even at 5 μM): concentration-dependently inhibited
PGE2 production-inhibitory effect compared with curcumin (PGE2; positive control curcumin, P<0.05): almost similar to the case of treatment with curcumin
glycoprotein level in the BAL fluid (glycoprotein (mucin)): decreased glycoprotein level
